Experimental data taken from paper PMC2852069 (Indian Journal of Pharmaceutical Sciences, 2008).
≈ marks a conversion by molar mass, not a printed value.

Experiments:
[1] = test system: SARS-CoV; assay: microbe, parasite or virus in culture; assay type: cell-based, Severe Acute Respiratory Syndrome corona virus (SARS-CoV); details: for EC50: Severe acute respiratory syndrome coronavirus, Vero C1008, 72 h, read-out: EC50 (50% effective concentration required to reduce virus-induced cytopathicity by 50%)
[2] = test system: HCV RNA (HCV replicon in Huh 5-2 cells); assay: microbe, parasite or virus in culture; assay type: cell-based, Hepatitis C Virus; details: for EC50: Hepatitis C virus, Huh-5-2, 72 h, read-out: EC50 HCV RNA
[3] = test system: Huh 5-2 cells; details: human
[4] = in vitro; details: African green monkey
[5] = in vitro; details: human, CC50 Cell growth

Row | Structure (SMILES) | Maximum protection (%) (at 125 μg/ml) [1] | EC50 [1] [µg/mL] | EC50 [2] [µg/mL] | concentration without toxicity [3] | CC50 [4] [µg/mL] | CC50 [5] [µg/mL] | EC50 HCV RNA [2] [µg/mL] | CC50 Cell growth [3] [µg/mL]
1 | Cc1cc(C)nc(NS(=O)(=O)c2ccc(/N=C3\C(=O)Nc4ccc(F)cc43)cc2)n1 [SPIII-5F] | 45 | > 125 | 6 (≈ 14.1 µM) | up to 42 μg/ml | > 125 | 42 (≈ 98.7 µM) |  | 
2 | Cc1cc(C)nc(NS(=O)(=O)c2ccc(/N=C3\C(=O)Nc4ccccc43)cc2)n1 [SPIII-5H, 4-[(1,2-dihydro-2-oxo-3H-indol-3-ylidene)amino]-N(4,6-dimethyl-2-pyrimidiny)benzene sulphonamide] | 22 | > 125 | 17 (≈ 41.7 µM) |  | > 125 | 42 (≈ 103 µM) | 19 (≈ 46.6 µM) | >50
3 | CC(=O)N1C(=O)/C(=N\c2ccc(S(=O)(=O)Nc3nc(C)cc(C)n3)cc2)c2ccccc21 [SPIII-NA] | 12 | > 125 | > 50 |  | > 125 | > 50 |  | 
4 | Cc1cc(C)nc(NS(=O)(=O)c2ccc(/N=C3\C(=O)Nc4ccc(Cl)cc43)cc2)n1 [SPIII-5Cl] | 10 | > 125 | > 50 |  | > 125 | > 50 |  | 
5 | Cc1cc(C)nc(NS(=O)(=O)c2ccc(/N=C3\C(=O)Nc4ccc(Br)cc43)cc2)n1 [SPIII-5Br] | 2 | > 125 | 19 (≈ 39.1 µM) |  | > 125 | 42 (≈ 86.4 µM) | 17 (≈ 35 µM) | >50
6 | Cc1ccc2c(c1)/C(=N/c1ccc(S(=O)(=O)Nc3nc(C)cc(C)n3)cc1)C(=O)N2 [SPIII-5Me] | 12 | > 125 | > 50 |  | > 125 | > 50 |  | 
